How the values were obtained:
[1] = molecular target: T1, NDM-1 (Klebsiella pneumoniae, UniProt C7C422); experiment: NDM-1 inhibition, fluorogenic cephalosporin (FC5) hydrolysis; assay type: biochemical; settings: enethiols 6 assayed as sodium salts; 10 min incubation; read-out: IC50 NDM-1
T1 construct: made in house
Procedure: (§1) Inhibition analyses against bacterial MBLs and SBLs were performed as described previously.[22], [24], [26] Residual enzyme activities were determined for a range of inhibitor concentrations. Non-linear regression fitting of IC50 curves was carried out using a three-parameter dose–response curve in GraphPad Prism. Errors in IC50 values are expressed as: σ(logIC50)/logIC50×IC50
(§2) We first screened the inhibitors against a representative set of presently clinically important and other MBLs[22], comprising both Class B1 enzymes (NDM-1, New Delhi MBL-1; VIM-2, Verona integron–encoded MBL-2; BcII, Bacillus cereus II MBL; SPM-1, São Paulo MBL-1; IMP-1, imipenemase MBL-1) and the Class B2 MBL CphA (carbapenem hydrolysing MBL from Aeromonas hydrophila).[22] The latter MBL (CphA) only utilises one active site Zn(II) ion in catalysis, whilst the others normally use two Zn(II) ions.
Figure S4: IC50 curves for NDM-1 inhibition time courses. Residual activities were calculated from the
(§3) initial rate of FC5 hydrolysis after incubation of the enzyme with the inhibitor for 10 minutes. […]

[2] = molecular target: T2, BcII (Bacillus cereus, UniProt P04190); experiment: biochemical; settings: enethiols 6 assayed as sodium salts; 10 min incubation; read-out: IC50 BcII (converted)
T2 construct: made in house
Procedure: as §1, §2
Figure S2: IC50 curves for BcII inhibition time courses. Residual activities were calculated from the initial
rate of FC5 hydrolysis after incubation of the enzyme with the inhibitor for 10 minutes. […]

[3] = 1H NMR time course stability (hydrolysis) test; assay type: physicochemical; settings: 200 µM, pH 7.5, presence or absence of NDM-1, timescale of the inhibition studies
Procedure: NMR experiments were carried out using a Bruker Avance III 700 MHz machine equipped with a TCI inverse cryoprobe or a Bruker Avance III HD 600 MHz spectrometer equipped with a Prodigy cryoprobe at 298 K. Data were analysed using Bruker Topspin 3.5. Processing of spectra was done with a Lorentzian line broadening of 0.3 Hz. Chemical shifts (δ) are given as parts per million (ppm) relative to residual HDO (δH 4.70 ppm for ^1H NMR).
For rhodanine stability studies solutions were buffered in either freshly prepared NH4HCO3 (50 mM, pH 7.50) or Tris-d11 (50 mM, pH 7.50) both with NaCl (100 mM) in D2O. ML302 stock solution (50 mM in DMSO‑d6) was added to a sample to give a final concentration of 200 µM. When specified, NDM-1 was added to give a final concentration of 1 µM. The reaction was followed at 1 h intervals over 18 h (Figs. S7 and S8).
Figure S7. […] A, 10 (200 µM) in NH4HCO3 (50 mM, pH
7.5 in D2O) in the absence of NDM-1, 1H NMR time course over 18 hours; B, 10 (200 µM) in NH4HCO3 (50 mM, pH 7.5 in D2O) in the presence of NDM-1 (1 µM), 1H NMR time course over 18 hours; C, 10 (200 µM) in Tris-d11 (50 mM, pH 7.5 in D2O) in the absence of NDM-1, 1H NMR time course over 18 hours; D, 10 (200 µM) in Tris-d11 (50 mM, pH 7.5 in D2O) and in the presence of NDM-1 (1 µM), 1H NMR time course over 18 hours. […]

[4] = molecular target: T3, VIM-2 (Escherichia coli, UniProt Q5U7L7); experiment: biochemical; settings: enethiols 6 assayed as sodium salts; 10 min incubation; read-out: IC50 VIM-2 (converted)
T3 construct: made in house
Procedure: as §1
as §2, with “ions. We also screened the inhibitors against a representative panel of SBLs from different classes (TEM-1, Temoneira β-lactamase-1, class A; CTX-M-15, cefotaxime hydrolysing β-lactamase from Munich 15, class A, extended spectrum β-lactamase (ESBL); AmpC E. coli, class C, and OXA-10, oxacillinase-10, class D).” for “ions.”
Figure S6: IC50 curves for VIM-2 inhibition time courses. Residual activities were calculated from the
as §3

[5] = molecular target: SPM-1 (Pseudomonas aeruginosa, UniProt Q8G9Q0); experiment: SPM-1 inhibition, fluorogenic cephalosporin (FC5) hydrolysis; assay type: biochemical; settings: enethiols 6 assayed as sodium salts; 10 min incubation; read-out: IC50 SPM-1 (converted)
Procedure: as §1, §2
Figure S5: IC50 curves for SPM-1 inhibition time courses. Residual activities were calculated from the
as §3

T1 sequence (C7C422 29-270, looked up, species assumed): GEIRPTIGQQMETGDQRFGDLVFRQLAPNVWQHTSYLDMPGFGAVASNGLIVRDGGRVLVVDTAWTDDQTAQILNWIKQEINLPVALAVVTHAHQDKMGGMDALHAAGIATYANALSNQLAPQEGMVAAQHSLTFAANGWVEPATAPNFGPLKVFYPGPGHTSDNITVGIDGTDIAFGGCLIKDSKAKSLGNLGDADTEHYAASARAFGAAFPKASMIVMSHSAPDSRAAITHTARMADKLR
T2 sequence (P04190 31-257): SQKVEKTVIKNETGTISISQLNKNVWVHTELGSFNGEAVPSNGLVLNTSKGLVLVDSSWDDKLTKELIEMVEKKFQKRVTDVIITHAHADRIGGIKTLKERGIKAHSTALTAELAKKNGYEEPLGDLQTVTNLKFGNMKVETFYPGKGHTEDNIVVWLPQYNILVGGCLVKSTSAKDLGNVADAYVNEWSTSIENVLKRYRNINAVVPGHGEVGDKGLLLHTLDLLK
Sequence of SPM-1 (Q8G9Q0 entry or part of it): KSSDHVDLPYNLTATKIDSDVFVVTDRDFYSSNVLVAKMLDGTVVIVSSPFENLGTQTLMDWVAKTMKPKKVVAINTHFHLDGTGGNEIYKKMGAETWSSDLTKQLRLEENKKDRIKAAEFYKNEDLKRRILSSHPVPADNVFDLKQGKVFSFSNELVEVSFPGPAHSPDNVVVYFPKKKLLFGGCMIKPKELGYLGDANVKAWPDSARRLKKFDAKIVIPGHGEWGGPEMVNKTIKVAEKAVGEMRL

Which IC50 [1] does the source give for CN1CCN(NC(=O)CN2C(=O)S/C(=C\c3c(Cl)ccc(Cl)c3Cl)C2=O)CC1 [Compound 10] here?
The IC50 was over 50000 nM.

And the IC50 [2]?
Its IC50 is 600 ± 50 nM.

And the “hydrolysis by 1H NMR (700 MHz)” value [3]?
Its value is “did not observe hydrolysis”.

And the IC50 [4]?
The IC50 was 200 ± 20 nM.

What about the IC50 [5] of the same compound?
The IC50 was 500 ± 40 nM.

From publication PMC6008492, “Structure activity relationship studies on rhodanines and derived enethiol inhibitors of metallo-β-lactamases” (Bioorganic & Medicinal Chemistry, 2018)
